Values of other authors, collected in patent US20140356497A1, “Composition” (Natural Biotechnology SPRL, priority 2011, published 2014).

Test system: Red Delicious apples
Details: 0.25% calcium ascorbate; considered unsatisfactory

calcium ascorbate
time for which Red Delicious apples are preserved: ≤ 1 h
